# Reference: patent US20250020668A1, “CANCER LESION TISSUE EVALUATION FOR OPTIMIZING EFFECT OF BORON NEUTRON CAPTURE THERAPY” (3-D Matrix, Ltd., priority 2018, published 2025)
# System: PABPc1
# Experiment: Immunoprecipitation with anti-BSH antibody from U251 cell crushing solution
# Assay type: binding
# Conditions: 50 μM, FIG. 2 and FIG. 3 combined
# Experimental: To a cell crushing solution of a malignant brain tumor cell line U251, simple BSH (referred to BSH) (50 μM) or BSH-11R (50 μM) was added, and proteins which bind to BSH and BSH-11R were explored by immunoprecipitation with an anti-BSH antibody (10 μg).
# To examine whether the binding of BSH-11R to the translation-related factors is a direct or indirect binding, a subline of malignant brain tumor cell line U251 that underwent knockdown of the translation-related factors with shRNA lentivirus was prepared. To the cell crushing solutions, BSH-11R (50 μM) was added, and translation-related factors that bind to BSH-11R were analyzed with an anti-BSH antibody (10 μg).
substance,measurement,value
mercaptoundecahydrodecaborate [BSH],binding to PABPc1,binds to BSH in an RNA-dependent manner
